Reference: ChEMBL document CHEMBL1177695, “Discovery and development of natural product-derived chemotherapeutic agents based on a medicinal chemistry approach” (J Nat Prod, 2010)
In brackets after ≈: the same amount, converted by molar mass. Blank lines part the entries; values can stand above or below the compound they belong to. Activity calls are given as the source filed them. The rule behind the calls is not given here.

Assays:
[1] = test system: H9; assay: Cytotoxicity against human H9 cells after 4 days by coulter counter; type: cell-based; conditions: Homo sapiens, H9, 96 h
[2] = test system: Human immunodeficiency virus 1; assay: Antiviral activity against HIV1 3B infected in H9 cells assessed as inhibition of viral replication by p24 antigen ELISA; type: functional, organism-based; conditions: Human immunodeficiency virus 1, 3B, H9; read-out: EC50
[3] = Therapeutic index, ratio of IC50 for human H9 cells to EC50 for HIV 3B; type: cell-based; conditions: read-out: TI
[4] = test system: Human immunodeficiency virus 1; assay: Antiviral activity against multidrug-resistant HIV1 RTMDR1 infected in H9 cells assessed as inhibition of viral replication by p24 antigen ELISA; type: functional, organism-based; conditions: Human immunodeficiency virus 1, RTMDR1, H9
[5] = Therapeutic index, ratio of IC50 for human H9 cells to EC50 for multidrug-resistant HIV1 RTMDR1; type: cell-based; conditions: read-out: TI
[6] = Antitumor activity against rat Walker 256 cells allografted in rat at 2.5 mg/kg relative to control; type: functional
[7] = test system: Hep-2 (human); assay: Cytotoxicity against human Hep-2 cells; conditions: for EC50: read-out: ED50 (the source's name)
[8] = test system: MCF7; assay: Cytotoxicity against human MCF7 cells after 72 hrs by sulforhodamine B assay; type: functional; conditions: MCF7, 72 h, read-out: ED50 (the source's name)
[9] = test system: SK-BR-3; assay: Cytotoxicity against human SK-BR-3 cells after 72 hrs by sulforhodamine B assay; type: functional; conditions: SK-BR-3, 72 h, read-out: ED50 (the source's name)
[10] = test system: ZR-75-1; assay: Cytotoxicity against human ZR-75-1 cells after 72 hrs by sulforhodamine B assay; type: functional; conditions: ZR-75-1, 72 h, read-out: ED50 (the source's name)
[11] = test system: MDA-MB-231; assay: Cytotoxicity against human MDA-MB-231 cells after 72 hrs by sulforhodamine B assay; type: functional; conditions: MDA-MB-231, 72 h, read-out: ED50 (the source's name)
[12] = test system: Tubulin; assay: Inhibition of tubulin polymerization
[13] = test system: A549; assay: Cytotoxicity against human A549 cells; type: functional, cell-based; conditions: a549
[14] = test system: Human immunodeficiency virus 1; assay: Antiviral activity against HIV1 infected in human H9 cells after 4 days by p24 antigen ELISA; type: functional, organism-based; conditions: Human immunodeficiency virus 1, H9, 96 h
[15] = test system: Human immunodeficiency virus 1; assay: Anti-HIV-1 activity in human H9 cells; conditions: H9, 96 h
[16] = test system: P388; assay: Antitumor activity against mouse P388 cells allografted in mouse at 8 mg/kg relative to control; type: functional
[17] = Therapeutic index, ratio of IC50 for human H9 cells to EC50 for HIV1; type: cell-based; conditions: read-out: TI
[18] = test system: Pseudomonas fluorescens; assay: Antibacterial activity against Pseudomonas fluorescens; type: functional
[19] = test system: Staphylococcus aureus; assay: Antibacterial activity against Staphylococcus aureus; type: functional
[20] = test system: Aspergillus niger; assay: Antifungal activity against Aspergillus niger; type: functional
[21] = test system: Aureobasidium pullulans; assay: Antifungal activity against Aureobasidium pullulans; type: functional
[22] = test system: Pseudomonas aeruginosa; assay: Antibacterial activity against Pseudomonas aeruginosa; type: functional
[23] = test system: Escherichia coli; assay: Antibacterial activity against Escherichia coli; type: functional
[24] = Inhibition of tubulin polymerization
[25] = test system: KB; assay: Cytotoxicity against human KB cells; type: functional, cell-based
[26] = Cytotoxicity against human KB-7d cells expressing multidrug-resistant protein; type: functional, cell-based; conditions: KB7D
[27] = Cytotoxicity against vincristine-resistant human KB/VCR cells overexpressing P-glycoprotein; type: functional, cell-based
[28] = test system: KB; assay: Cytotoxicity against CPT-resistant human KB cells […] reduced level of topoisomerase; type: functional, cell-based
[29] = test system: PC-3; assay: Cytotoxicity against human PC3 cells after 2 days; type: functional, cell-based; conditions: PC-3, 48 h
[30] = test system: LNCaP; assay: Cytotoxicity against human LNCAP cells after 2 days; type: functional, cell-based; conditions: 48 h
[31] = test system: A549; assay: Cytotoxicity against human A549 cells after 3 days by sulforhodamine B assay; type: functional, cell-based; conditions: A549, 72 h
[32] = test system: 1A9; assay: Cytotoxicity against human 1A9 cells after 3 days by sulforhodamine B assay; type: functional, cell-based; conditions: 1A9, 72 h
[33] = test system: A-431; assay: Cytotoxicity against human A431 cells after 3 days by sulforhodamine B assay; type: functional, cell-based; conditions: A-431, 72 h
[34] = test system: HCT-8; assay: Cytotoxicity against human HCT8 cells after 3 days by sulforhodamine B assay; type: functional, cell-based; conditions: HCT-8, 72 h
[35] = test system: PC-3; assay: Cytotoxicity against human PC3 cells after 3 days by sulforhodamine B assay; type: functional, cell-based; conditions: PC-3, 72 h
[36] = test system: KB; assay: Cytotoxicity against human KB cells after 3 days by sulforhodamine B assay; type: functional, cell-based; conditions: 72 h
[37] = Cytotoxicity against human KBVIN cells after 3 days by sulforhodamine B assay; type: functional, cell-based; conditions: 72 h
[38] = test system: HUVEC; assay: Cytotoxicity against HUVEC after 3 days by sulforhodamine B assay; type: cell-based; conditions: Homo sapiens, 72 h
[39] = test system: KB; assay: Selectivity ratio of EC50 for human KB cells to EC50 for vincristine-resistant human KB cells; type: functional

SMILES: CC1(C)Oc2ccc3c(=O)cc(-c4ccccc4)oc3c2[C@@H](OC(=O)C23CCC(C)(C(=O)O2)C3(C)C)[C@H]1OC(=O)C12CCC(C)(C(=O)O1)C2(C)C (some centres undefined)
IC50 [1]: 12200 nM
EC50 [2]: 130 nM
selectivity ratio [3]: 277
EC50 [4]: 170 nM
selectivity ratio [5]: 71

SMILES: C=C(C)C(=O)O[C@H]1C/C(C)=C\[C@@]2(OCC)C=C(C)[C@H](O2)[C@H]2OC(=O)C(=C)[C@@H]21 [PHANTOMOLIN]
T/C [6]: 378%

SMILES: C[C@@H]1C[C@H]2OC(=O)[C@@H](C)[C@H]2[C@H](O)[C@]2(C)C(=O)CC[C@@H]12
ED50 [7]: inactive

SMILES: COc1cccc2c1ccc1c3occ(C)c3c(=O)oc21
EC50 [8]: 2.3 µg/mL (≈ 8.21 µM)
EC50 [9]: 0.2 µg/mL (≈ 0.714 µM)
EC50 [10]: 0.1 µg/mL (≈ 0.357 µM)
EC50 [11]: 6.4 µg/mL (≈ 22.8 µM)

IC50 [12]: 720 nM
SMILES: Cc1cnc2[nH]c(-c3cccc(Cl)c3)cc(=O)c2c1

SMILES: COc1ccc2c(CNCCCCCCO)cc3cc4c(cc3c2c1)OCO4
IC50 [13]: 160 nM

IC50 [12]: 530 nM
SMILES: Cc1ccc2c(=O)cc(-c3cccc(F)c3)[nH]c2n1

IC50 [14]: 48000 nM
EC50 [15]: 19000 nM
SMILES: C=C(C)[C@@H]1CC[C@]2(C(=O)O)CC[C@]3(C)[C@H](CC[C@@H]4[C@@]5(C)CC[C@H](OC(=O)/C=C/C)C(C)(C)[C@@H]5CC[C@]43C)[C@@H]12

SMILES: Cc1cc(=O)c2ccc3c(c2o1)[C@@H](OC(=O)C12CCC(C)(C(=O)O1)C2(C)C)[C@@H](OC(=O)C12CCC(C)(C(=O)O1)C2(C)C)C(C)(C)O3 (some centres undefined)
IC50 [1]: 11800 nM
selectivity ratio [3]: 8600
EC50 [4]: 190 nM
selectivity ratio [5]: 63

SMILES: C=C1C(=O)O[C@@H]2C[C@@H](C)[C@@H]3C=CC(=O)[C@@]3(C)[C@@H](O)[C@H]12 [HELENALIN]
T/C [6]: 316%
T/C [16]: 162%
EC50 [7]: 0.08 µg/mL (≈ 0.305 µM)

IC50 [12]: 550 nM
SMILES: Cc1cnc2nc(-c3cccc4ccccc34)cc(O)c2c1

SMILES: C=C(C)[C@@H]1CC[C@]2(C(=O)O)CC[C@]3(C)[C@H](CC[C@@H]4[C@@]5(C)CC[C@H](OC(=O)CC(C)(C)CC(=O)O)C(C)(C)[C@@H]5CC[C@]43C)[C@@H]12
IC50 [14]: 4500 nM
selectivity ratio [17]: 2000
EC50 [15]: 3 nM

SMILES: O=C1c2ccccc2C(=O)c2c(NCC3CO3)ccc(NCC3CO3)c21 (centres undefined)
MIC [18]: 0.13 µg/mL (≈ 0.371 µM)
MIC [19]: 0.13 µg/mL (≈ 0.371 µM)
MIC [20]: 0.13 µg/mL (≈ 0.371 µM)
MIC [21]: 0.13 µg/mL (≈ 0.371 µM)
MIC [22]: 63 µg/mL (≈ 180 µM)
MIC [23]: 250 µg/mL (≈ 714 µM)

IC50 [24]: 1000 nM
SMILES: COc1ccc2c(c1)C(=O)CCc1cc(OC)c(OC)c(OC)c1-2
EC50 [25]: 0.057 µg/mL (≈ 0.174 µM)
EC50 [26]: 0.025 µg/mL (≈ 0.0761 µM)
EC50 [27]: > 0.063 µg/mL
EC50 [28]: 0.052 µg/mL (≈ 0.158 µM)

SMILES: CCOC(=O)/C=C/C(C(=O)/C=C/c1ccc(OC)c(OC)c1)=C(O)\C=C\c1ccc(OC)c(OC)c1
IC50 [29]: 1000 nM
IC50 [30]: 200 nM

SMILES: COC1=C(C)C(O)=C(C(=O)/C=C/c2ccccc2)C(=O)C1(C)C [DESMOSDUMOTIN C]
EC50 [31]: 3 µg/mL (≈ 9.6 µM)
EC50 [32]: 3 µg/mL (≈ 9.6 µM)
EC50 [33]: 3 µg/mL (≈ 9.6 µM)
EC50 [34]: 3 µg/mL (≈ 9.6 µM)
EC50 [35]: 3 µg/mL (≈ 9.6 µM)
EC50 [36]: 3 µg/mL (≈ 9.6 µM)
EC50 [37]: 3 µg/mL (≈ 9.6 µM)
EC50 [38]: 3 µg/mL (≈ 9.6 µM)

SMILES: CCC1=C(O)c2c(oc(-c3ccc(CC)cc3)cc2=O)C(CC)(CC)C1=O [6,8,8-TRIETHYL-4-ETHYL DESMOSDUMOTIN B]
EC50 [37]: 0.025 µg/mL (≈ 0.0682 µM)
Ratio EC50 [39]: 320

SMILES: C[C@@H]1C[C@H]2OC(=O)[C@@H](C)[C@H]2[C@H](O)[C@]2(C)C(=O)C=C[C@@H]12
EC50 [7]: 0.8 µg/mL (≈ 3.03 µM)

SMILES: CCCC1=C(OC)C(CCC)(CCC)C(=O)/C(=C(O)\C=C\c2ccc(Br)cc2)C1=O
EC50 [31]: 0.9 µg/mL (≈ 1.89 µM)
EC50 [32]: 0.9 µg/mL (≈ 1.89 µM)
EC50 [33]: 0.9 µg/mL (≈ 1.89 µM)
EC50 [34]: 0.9 µg/mL (≈ 1.89 µM)
EC50 [35]: 0.9 µg/mL (≈ 1.89 µM)
EC50 [36]: 0.9 µg/mL (≈ 1.89 µM)
EC50 [37]: 0.9 µg/mL (≈ 1.89 µM)
EC50 [38]: 0.9 µg/mL (≈ 1.89 µM)

IC50 [24]: 1000 nM
SMILES: COc1ccc2c(c1)c(=O)ccc1cc(OC)c(OC)c(OC)c12
EC50 [25]: 0.029 µg/mL (≈ 0.0889 µM)
EC50 [26]: 0.024 µg/mL (≈ 0.0735 µM)
EC50 [27]: 0.016 µg/mL (≈ 0.049 µM)
EC50 [28]: 0.042 µg/mL (≈ 0.129 µM)
